Experimental data reported in US11530233B2, “Beta-nicotinate ester nucleotides and processes for preparing same” (Cornell University, priority 2017, dated 2022).

Columns and labels:
Neuro2a cells = assay: Intracellular NAD+ levels in Neuro2a cells after 8 h incubation with NaMN or NR; type: cell-based; settings: 1 mM, FIG. 4
Procedure: (§1) The ability of nicotinic acid mononucleotide, NaMN, to serve as an NAD^+ enhancing agent in mammalian cell lines, Neuro2a and HEK293 cells was examined after an 8 h incubation. NaMN was added to cell growth media at a concentration of 1 mM. All cell treatments were done in duplicate. Nicotinamide riboside (NR) at 1 mM concentration was performed as a positive control. Untreated cells served as negative controls. Cells were treated for the allotted time then harvested by trysin detachment and pelleting. Cells were counted by haemocytometer and then lysed by treatment with 100 μL perchloric acid (7%). Lysates were then neutralized by treatment with NaOH and K2PO4 solutions. NAD^+ concentrations were determined by a daphorase-based assay. NAD^+ standards were also run to establish a standard curve. The results are graphically depicted in FIG. 4.

HEK293 cells = assay: Intracellular NAD+ levels in HEK293 cells after 8 h incubation with NaMN or NR; type: cell-based, human; settings: 1 mM, HEK293, FIG. 4
Procedure: as §1

HEK-293 cells = assay: NAD+ concentration in HEK-293 cells after treatment with nicotinic acid ester mononucleotides (NAD+ cycling assay); type: cell-based, human; settings: HEK293, 24 hr incubation
Procedure: L. et al., Arch. Biochem. Biophys., 175: 627-634 (1976)). The cells were washed with PBS, counted by haemocytometry and pelleted. The cells were then treated with 7% perchloric acid, and then neutralized with 1 M NaOH and 500 mM potassium phosphate pH 8.5. NAD^+ contents were then measured on a plate reader using diaphorase and lactate dehydrogenase using Resazurin as a dye that is reduced to rezarufin (emission 560 nm). NAD^+ levels were quantitated using a standard curve using known NAD^+ concentrations. NAD^+ concentrations are determined to nmol NAD^+/10^6 cells. All values in Table 1 are listed as compared to control.

SMILES | intracellular NAD^+ content versus untreated cells (Neuro2a cells) | intracellular NAD^+ content versus untreated cells (HEK293 cells) | NAD^+ Level (% versus control) (HEK-293 cells; 25 μM) | NAD^+ Level (% versus control) (HEK-293 cells; 100 μM) | NAD^+ Level (% versus control) (HEK-293 cells; 500 μM) | NAD^+ Level (% versus control) (HEK-293 cells; 200 μM)
NC(=O)c1ccc[n+]([C@@H]2O[C@H](CO)[C@@H](O)[C@H]2O)c1 [NR, Nicotinamide riboside] | increased NAD^+ contents in cells | increased NAD^+ contents in cells | – | – | – | –
O=C(O)c1ccc[n+]([C@@H]2O[C@H](COP(=O)(O)O)[C@@H](O)[C@H]2O)c1 [NaMN, nicotinic acid mononucleotide] | No intracellular increase in NAD^+ | No intracellular increase in NAD^+ | – | – | – | –
CCCCOC(=O)c1ccc[n+]([C@@H]2O[C@H](COP(=O)([O-])O)[C@H](O)[C@@H]2O)c1 [compound 5b, ((2R,3R,4S,5R)-3,4-dihydroxy-5-(3-(butoxycarbonyl)pyridin-1-ium-1-yl)tetrahydrofuran-2-yl)methyl hydrogen phosphate] | – | – | 104 ± 29 % versus control | 165 ± 31 % versus control | 103 ± 32 % versus control | –
CCCCCOC(=O)c1ccc[n+]([C@@H]2O[C@H](COP(=O)([O-])O)[C@H](O)[C@@H]2O)c1 [compound 5c, ((2R,3R,4S,5R)-3,4-dihydroxy-5-(3-(pentyloxycarbonyl)pyridin-1-ium-1-yl)tetrahydrofuran-2-yl)methyl hydrogen phosphate] | – | – | 80 ± 21 % versus control | 105 ± 26 % versus control | 124 ± 27 % versus control | 171 ± 18 % versus control
CCCCCCOC(=O)c1ccc[n+]([C@@H]2O[C@H](COP(=O)([O-])O)[C@H](O)[C@@H]2O)c1 [compound 5d, ((2R,3R,4S,5R)-3,4-dihydroxy-5-(3-(hexyloxycarbonyl)pyridin-1-ium-1-yl)tetrahydrofuran-2-yl)methyl hydrogen phosphate] | – | – | 136 ± 26 % versus control | 162 ± 15 % versus control | 146 ± 48 % versus control | –
CCCCCCCOC(=O)c1ccc[n+]([C@@H]2O[C@H](COP(=O)([O-])O)[C@H](O)[C@@H]2O)c1 [compound 5e, ((2R,3R,4S,5R)-3,4-dihydroxy-5-(3-(heptyloxycarbonyl)pyridin-1-ium-1-yl)tetrahydrofuran-2-yl)methyl hydrogen phosphate] | – | – | 152 ± 19 % versus control | 150 ± 11 % versus control | 123 ± 21 % versus control | –
CCCCCCCCOC(=O)c1ccc[n+]([C@@H]2O[C@H](COP(=O)([O-])O)[C@H](O)[C@@H]2O)c1 [compound 5f, ((2R,3R,4S,5R)-3,4-dihydroxy-5-(3-(octyloxycarbonyl)pyridin-1-ium-1-yl)tetrahydrofuran-2-yl)methyl hydrogen phosphate] | – | – | – | – | – | 90 ± 8.7 % versus control
